This series has as its system MCF-7 cells. Nature of the series: Cytotoxicity study of DOX loaded shells vs free doxorubicin solution and empty shells. Particulars: 5 days.

Protocol: Human breast cancer MCF-7 cells were obtained from ATCC.
Free DOX solution, DOX-loaded shells, and empty shells of different concentrations were used in cell cytotoxicity studies for 5 days.
A cytotoxicity study of DOX loaded shells was carried out in vitro as compared to free doxorubicin solution (FIG. 13).
All samples were incubated in culture media for 5 days.

For the compound `COc1cccc2c1C(=O)c1c(O)c3c(c(O)c1C2=O)C[C@@](O)(C(=O)CO)C[C@@H]3O[C@H]1C[C@H](N)[C@H](O)[C@H](C)O1.Cl` [Doxorubicin solution, Doxorubicin], the “cytotoxicity compared to free DOX solution” value is on record as “strongest cytotoxicity”.

For the origin of these results see patent US20050058603A1, “Drug delivery system based on polymer nanoshells” (Case Western Reserve University, priority 2003, published 2005).
